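Following 48 hours of exposure in 96-well plates, responses at five concentrations were used to interpolate endpoints linearly. GI50 is the concentration that inhibits growth by half. TGI: total growth inhibition.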
Assays:
Experiment in all cases: NCI anticancer screen, dose series, 48 h
MCF7 breast = test system: MCF7 breast
LOX IMVI melanoma = test system: LOX IMVI melanoma
HCC-2998 colon = test system: HCC-2998 colon
NCI-H522 lung = test system: NCI-H522 lung
K-562 leukemia = test system: K-562 leukemia
DU-145 prostate = test system: DU-145 prostate
SF-295 CNS = test system: SF-295 CNS
NCI-H226 lung = test system: NCI-H226 lung
OVCAR-8 ovarian = test system: OVCAR-8 ovarian
HL-60(TB) leukemia = test system: HL-60(TB) leukemia
SK-OV-3 ovarian = test system: SK-OV-3 ovarian
SNB-19 CNS = test system: SNB-19 CNS
TK-10 renal = test system: TK-10 renal
T-47D breast = test system: T-47D breast
SR leukemia = test system: SR leukemia
786-0 renal = test system: 786-0 renal
SK-MEL-2 melanoma = test system: SK-MEL-2 melanoma
OVCAR-5 ovarian = test system: OVCAR-5 ovarian
MOLT-4 leukemia = test system: MOLT-4 leukemia

## CCOC(=O)CCSc1nc2ccc(I)cc2c(=O)n1Cc1ccccc1
MCF7 breast
  TGI: > 100 µM
LOX IMVI melanoma
  TGI: > 77.3 µM
HCC-2998 colon
  TGI: > 71.2 µM
NCI-H522 lung
  TGI: 52.5 µM
K-562 leukemia
  TGI: > 100 µM
DU-145 prostate
  TGI: > 100 µM
SF-295 CNS
  TGI: > 73.3 µM
NCI-H226 lung
  TGI: > 100 µM
OVCAR-8 ovarian
  TGI: > 100 µM
HL-60(TB) leukemia
  TGI: > 73.7 µM
SK-OV-3 ovarian
  TGI: > 100 µM
SNB-19 CNS
  TGI: > 100 µM
TK-10 renal
  TGI: > 88.2 µM
T-47D breast
  TGI: > 100 µM
SR leukemia
  TGI: 29.5 µM
786-0 renal
  TGI: > 96.8 µM
SK-MEL-2 melanoma
  TGI: > 100 µM
OVCAR-5 ovarian
  TGI: > 100 µM

## COc1ccc(-c2cc(-c3ccc(O)cc3O)c(C#N)c(=O)[nH]2)cc1
MCF7 breast
  TGI: > 100 µM
LOX IMVI melanoma
  TGI: 31.6 µM
K-562 leukemia
  TGI: 77 µM
DU-145 prostate
  TGI: > 100 µM
SF-295 CNS
  TGI: 34 µM
NCI-H226 lung
  TGI: 55.3 µM
OVCAR-8 ovarian
  TGI: 85.2 µM
HL-60(TB) leukemia
  TGI: 65.4 µM
SK-OV-3 ovarian
  TGI: 33.8 µM
SNB-19 CNS
  TGI: 53.3 µM
TK-10 renal
  TGI: > 100 µM
T-47D breast
  TGI: > 100 µM
SR leukemia
  TGI: 53.4 µM
MOLT-4 leukemia
  TGI: 55.1 µM
786-0 renal
  TGI: 40.9 µM
OVCAR-5 ovarian
  TGI: 43.3 µM

## [N-]=[N+]=Nc1c(Cl)c(Cl)nc2ccccc12
MCF7 breast
  TGI: > 100 µM
LOX IMVI melanoma
  TGI: > 100 µM
HCC-2998 colon
  TGI: > 100 µM
NCI-H522 lung
  TGI: > 100 µM
K-562 leukemia
  TGI: > 100 µM
DU-145 prostate
  TGI: > 100 µM
SF-295 CNS
  TGI: > 100 µM
NCI-H226 lung
  TGI: > 100 µM
OVCAR-8 ovarian
  TGI: > 100 µM
SK-OV-3 ovarian
  TGI: > 100 µM
SNB-19 CNS
  TGI: > 100 µM
TK-10 renal
  TGI: > 100 µM
T-47D breast
  TGI: > 100 µM
SR leukemia
  TGI: > 100 µM
MOLT-4 leukemia
  TGI: > 100 µM
786-0 renal
  TGI: > 100 µM
SK-MEL-2 melanoma
  TGI: > 100 µM
OVCAR-5 ovarian
  TGI: > 100 µM

## COc1cc2c(cc1OCCCOS(C)(=O)=O)N=C[C@@H]1CCCN1C2=O
MCF7 breast
  TGI: > 100 µM
LOX IMVI melanoma
  TGI: > 100 µM
HCC-2998 colon
  TGI: > 100 µM
NCI-H522 lung
  TGI: > 100 µM
DU-145 prostate
  TGI: > 100 µM
SF-295 CNS
  TGI: > 100 µM
NCI-H226 lung
  TGI: > 100 µM
OVCAR-8 ovarian
  TGI: > 100 µM
HL-60(TB) leukemia
  TGI: > 100 µM
SK-OV-3 ovarian
  TGI: > 100 µM
SNB-19 CNS
  TGI: > 100 µM
TK-10 renal
  TGI: > 100 µM
T-47D breast
  TGI: > 100 µM
SR leukemia
  GI50: 62.9 µM
  TGI: > 100 µM
MOLT-4 leukemia
  TGI: > 100 µM
786-0 renal
  TGI: > 100 µM
SK-MEL-2 melanoma
  TGI: > 100 µM

## O=[N+]([O-])c1ccc(Oc2c(Cl)cc(S(=O)(=O)/N=C(\NO)Nc3ccc(Cl)cc3)cc2Cl)c(Cl)c1
MCF7 breast
  TGI: 34 µM
LOX IMVI melanoma
  TGI: 37.8 µM
HCC-2998 colon
  TGI: 31.2 µM
NCI-H522 lung
  TGI: 26.4 µM
K-562 leukemia
  TGI: 35 µM
DU-145 prostate
  TGI: 26.8 µM
SF-295 CNS
  TGI: 31.1 µM
NCI-H226 lung
  TGI: 48.3 µM
OVCAR-8 ovarian
  TGI: 54.1 µM
HL-60(TB) leukemia
  TGI: 51.7 µM
SNB-19 CNS
  TGI: 30.6 µM
TK-10 renal
  TGI: 29.7 µM
T-47D breast
  TGI: 67.7 µM
SR leukemia
  TGI: 32.6 µM
MOLT-4 leukemia
  TGI: 25.6 µM
786-0 renal
  TGI: 27.8 µM
SK-MEL-2 melanoma
  TGI: 35.7 µM
OVCAR-5 ovarian
  TGI: 35.5 µM

## CC(=O)OCC1OC(n2c3c(cc(C#N)c2=S)CCC3)C(OC(C)=O)C(OC(C)=O)C1OC(C)=O (stereo unspecified)
MCF7 breast
  TGI: > 100 µM
LOX IMVI melanoma
  TGI: > 100 µM
HCC-2998 colon
  TGI: > 100 µM
NCI-H522 lung
  TGI: > 100 µM
K-562 leukemia
  TGI: > 100 µM
DU-145 prostate
  TGI: > 100 µM
SF-295 CNS
  TGI: > 100 µM
NCI-H226 lung
  TGI: > 100 µM
OVCAR-8 ovarian
  TGI: > 100 µM
HL-60(TB) leukemia
  TGI: > 100 µM
SNB-19 CNS
  TGI: > 100 µM
TK-10 renal
  TGI: > 100 µM
T-47D breast
  TGI: > 100 µM
SR leukemia
  TGI: > 100 µM
MOLT-4 leukemia
  TGI: > 100 µM
786-0 renal
  TGI: > 100 µM
SK-MEL-2 melanoma
  TGI: > 100 µM
OVCAR-5 ovarian
  TGI: > 100 µM

## CCN(CC)CCN(C(=Nc1ccccc1)N1CCCCC1)c1ccccc1
MCF7 breast
  TGI: 56.7 µM
LOX IMVI melanoma
  TGI: 23.7 µM
HCC-2998 colon
  TGI: 19.9 µM
NCI-H522 lung
  TGI: 13.2 µM
K-562 leukemia
  TGI: 16.2 µM
DU-145 prostate
  TGI: > 100 µM
SF-295 CNS
  TGI: 17.9 µM
NCI-H226 lung
  TGI: 29.3 µM
OVCAR-8 ovarian
  TGI: 29.5 µM
HL-60(TB) leukemia
  TGI: 6.95 µM
SK-OV-3 ovarian
  TGI: 24.2 µM
SNB-19 CNS
  TGI: > 100 µM
TK-10 renal
  TGI: 97.8 µM
T-47D breast
  TGI: 9.92 µM
SR leukemia
  TGI: 23.6 µM
MOLT-4 leukemia
  TGI: 25.2 µM
786-0 renal
  TGI: 85.9 µM
SK-MEL-2 melanoma
  TGI: 37.7 µM

## O=c1cc(CSc2c(-c3ccccc3)c(=O)n(-c3ccccc3)c(=S)n2-c2ccccc2)[nH]c(=O)[nH]1
MCF7 breast
  TGI: > 100 µM
HCC-2998 colon
  TGI: > 100 µM
K-562 leukemia
  TGI: > 100 µM
DU-145 prostate
  TGI: > 100 µM
OVCAR-8 ovarian
  TGI: > 100 µM
HL-60(TB) leukemia
  TGI: > 100 µM
SK-OV-3 ovarian
  TGI: > 100 µM
SNB-19 CNS
  TGI: > 100 µM
TK-10 renal
  TGI: > 100 µM
T-47D breast
  TGI: > 100 µM
SR leukemia
  TGI: > 100 µM
MOLT-4 leukemia
  TGI: > 100 µM
786-0 renal
  TGI: > 100 µM
SK-MEL-2 melanoma
  TGI: > 100 µM
OVCAR-5 ovarian
  TGI: > 100 µM

## COc1cc(/C=N\c2nc(-c3ccc(NS(=O)(=O)c4ccc(Cl)c(OC)c4)cc3)cs2)ccc1O
MCF7 breast
  TGI: 56.2 µM
LOX IMVI melanoma
  TGI: > 100 µM
NCI-H522 lung
  TGI: 60.9 µM
K-562 leukemia
  TGI: > 100 µM
DU-145 prostate
  TGI: > 100 µM
SF-295 CNS
  TGI: > 100 µM
NCI-H226 lung
  TGI: > 100 µM
OVCAR-8 ovarian
  TGI: > 100 µM
HL-60(TB) leukemia
  TGI: 74 µM
SK-OV-3 ovarian
  TGI: > 100 µM
SNB-19 CNS
  TGI: > 100 µM
T-47D breast
  TGI: 59.1 µM
SR leukemia
  TGI: > 100 µM
MOLT-4 leukemia
  TGI: > 100 µM
786-0 renal
  TGI: > 100 µM
SK-MEL-2 melanoma
  TGI: > 100 µM
OVCAR-5 ovarian
  TGI: > 100 µM

## CCN(CC)C1CCC(C2c3cc4c(cc3OC(N3CCOCC3)C2C)OCO4)CC1 (stereo unspecified)
MCF7 breast
  TGI: > 84.1 µM
LOX IMVI melanoma
  TGI: > 100 µM
HCC-2998 colon
  TGI: 40.3 µM
NCI-H522 lung
  TGI: 72.5 µM
K-562 leukemia
  TGI: > 100 µM
DU-145 prostate
  TGI: > 100 µM
SF-295 CNS
  TGI: > 100 µM
OVCAR-8 ovarian
  TGI: > 100 µM
HL-60(TB) leukemia
  TGI: 89.8 µM
SNB-19 CNS
  TGI: > 100 µM
TK-10 renal
  TGI: > 100 µM
T-47D breast
  TGI: > 96.7 µM
SR leukemia
  TGI: > 100 µM
MOLT-4 leukemia
  TGI: > 68.2 µM
786-0 renal
  TGI: > 100 µM
SK-MEL-2 melanoma
  TGI: 42.2 µM
OVCAR-5 ovarian
  TGI: 96.9 µM

## CNC(=O)NCCN1CC2CCC(CC2)C1
MCF7 breast
  TGI: > 10 µM
LOX IMVI melanoma
  TGI: > 10 µM
HCC-2998 colon
  TGI: > 10 µM
NCI-H522 lung
  TGI: > 10 µM
K-562 leukemia
  TGI: > 10 µM
DU-145 prostate
  TGI: > 10 µM
SF-295 CNS
  TGI: > 10 µM
NCI-H226 lung
  TGI: > 10 µM
OVCAR-8 ovarian
  TGI: > 10 µM
HL-60(TB) leukemia
  TGI: > 10 µM
SK-OV-3 ovarian
  TGI: > 10 µM
SNB-19 CNS
  TGI: > 10 µM
TK-10 renal
  TGI: > 10 µM
T-47D breast
  TGI: > 10 µM
SR leukemia
  TGI: > 10 µM
MOLT-4 leukemia
  TGI: > 10 µM
786-0 renal
  TGI: > 10 µM
SK-MEL-2 melanoma
  TGI: > 10 µM

## O=c1[nH]nc(Cc2ccccc2)n1CCCl
MCF7 breast
  TGI: > 100 µM
LOX IMVI melanoma
  TGI: > 100 µM
HCC-2998 colon
  TGI: > 100 µM
K-562 leukemia
  TGI: > 100 µM
DU-145 prostate
  TGI: > 100 µM
SF-295 CNS
  TGI: > 100 µM
NCI-H226 lung
  TGI: > 100 µM
OVCAR-8 ovarian
  TGI: > 100 µM
HL-60(TB) leukemia
  TGI: > 100 µM
SK-OV-3 ovarian
  TGI: > 100 µM
SNB-19 CNS
  TGI: > 100 µM
T-47D breast
  TGI: > 100 µM
SR leukemia
  TGI: > 100 µM
MOLT-4 leukemia
  TGI: > 100 µM
786-0 renal
  TGI: > 100 µM
SK-MEL-2 melanoma
  TGI: > 100 µM
OVCAR-5 ovarian
  TGI: > 100 µM

## COC(=O)C1=C(OC(=O)c2ccccc2)C(C(=O)OC)[C@@]2(O)[C@@H](C(=O)OC)[C@H](C)C[C@@H]1[C@@H]2C(=O)OC (stereo partly specified)
MCF7 breast
  TGI: > 100 µM
LOX IMVI melanoma
  TGI: > 100 µM
HCC-2998 colon
  TGI: 89.7 µM
NCI-H522 lung
  TGI: 33 µM
DU-145 prostate
  TGI: > 100 µM
SF-295 CNS
  TGI: > 100 µM
NCI-H226 lung
  TGI: > 100 µM
OVCAR-8 ovarian
  TGI: > 100 µM
HL-60(TB) leukemia
  TGI: > 100 µM
SK-OV-3 ovarian
  TGI: > 100 µM
SNB-19 CNS
  TGI: > 100 µM
TK-10 renal
  TGI: > 100 µM
T-47D breast
  TGI: > 100 µM
SR leukemia
  TGI: > 100 µM
MOLT-4 leukemia
  TGI: > 100 µM
786-0 renal
  TGI: > 100 µM
SK-MEL-2 melanoma
  TGI: > 100 µM
OVCAR-5 ovarian
  TGI: > 100 µM

Reference: PubChem BioAssay (NCI)
